Results as given in patent publication US20190230932A1, “Synergistic Combinations Of Monochloramine And Organic Acid, And Methods Of Using The Same For Microbial Control” (Buckman Laboratories International, Inc., priority 2018, published 2019).

Tests used:
[1] = test system: Pseudomonas bacterial cells; assay: Checkerboard of monochloramine and citric acid, OD 600 nm growth curves over 48 hours (Example 2, FIGS. 2-5); assay type: cell-based
Procedure: In this study, Pseudomonas bacterial cells were grown in nutrient broth media. The nutrient broth media comprised corn mash (35 wt %) and water. Appropriate amount of culture cells, monochloramine and/or citric acid were transferred into 24-well plate and incubated at 37° C. for 48 hrs. in a plate reader. The 24-well plate layout held samples which contained monochloramine added in concentrations (ppm) of 0, 12.5, 50 and 100 ppm in different rows of well samples, and citric acid added in concentrations (ppm) of 0, 500, 3,000, 7,000, 10,000, and 20,000 in different columns of well samples, in a checkerboard pattern. Bacterial growth was monitored for each sample using a UV-VIS spectrophotometer to measure optical density (OD) (at measurement wavelength 600 nm) for the samples for 48 hours. The growth curves from the data are plotted in FIGS. 2-5.

[2] = test system: Pseudomonas bacterial cells; assay: Checkerboard of monochloramine and citric acid, bacterial growth in corn mash nutrient broth, 24-well plate (Example 1); on Bacterial growth at 12 hr.: key: −−−: No further growth observed; +++: Growth observed; assay type: cell-based; parameters: Bacterial growth at 12 hr. / Bacterial growth at 14 hr.: key: −−−: No further growth observed; +++: Growth observed; conditions: for Bacterial growth at 12 hr. / Bacterial growth at 14 hr.: 37° C., 600 nm
Procedure: Laboratory experiments were performed to study the microbicidal efficacy of a combination of monochloramine with citric acid.
Pseudomonas bacterial cells were grown in nutrient broth media. The nutrient broth media comprised corn mash (35 wt %) and water. Appropriate amount of culture cells, monochloramine and/or citric acid were transferred into 24-well plate and incubated at 37° C. The 24-well plate layout held samples which contained monochloramine added in concentrations (ppm) of 0.00, 12.50, 50.00 and 100.00 in different rows of well samples, […], in different columns of well samples, in a checkerboard pattern, such as shown in Tables 1 and 2. Bacterial growth was monitored for each sample at 12 hours and 14 hours. Measurement was qualitative based upon measurement in a plate reader. A UV-VIS spectrophotometer was used at measurement wavelength 600 nm.

SMILES: NCl [Oxamine (MCA), monochloramine]
- control of bacteria growth (OD 600 nm growth curve) ([1]; 12.5 ppm monochloramine alone, FIG. 3): no control of bacteria growth
- control of bacteria growth (OD 600 nm growth curve) ([1]; 50 ppm monochloramine alone, FIG. 4): cells growth was delayed
- control of bacteria growth (OD 600 nm growth curve) ([1]; 100 ppm monochloramine without citric acid, FIG. 5): total inhibition of bacteria growth
- inhibition of bacterial growth ([2]; 50 ppm monochloramine added individually): not inhibitory to bacterial growth
- control of bacterial growth ([2]; 100 ppm MCA alone): sufficient to control
- Bacterial growth at 12 hr. ([2]; MCA 12.5 ppm, CA 0 ppm): +++
- Bacterial growth at 14 hr. ([2]; MCA 12.5 ppm, CA 0 ppm): +++
- Bacterial growth at 12 hr. ([2]; MCA 50 ppm, CA 0 ppm): +++
- Bacterial growth at 14 hr. ([2]; MCA 50 ppm, CA 0 ppm): +++

SMILES: O=C(O)CC(O)(CC(=O)O)C(=O)O [Citric acid (CA), citric acid]
- control of bacteria growth (OD 600 nm growth curve) ([1]; citric acid alone, 500 to 20,000 ppm, no MCA, FIG. 2): not all of the evaluated citric acid concentrations controlled bacteria growth
- inhibition of bacterial growth ([2]; 10,000 ppm citric acid added individually (no MCA)): not inhibitory to bacterial growth
- Bacterial growth at 12 hr. ([2]; MCA 0 ppm, CA 500 ppm): +++
- Bacterial growth at 14 hr. ([2]; MCA 0 ppm, CA 500 ppm): +++
- Bacterial growth at 12 hr. ([2]; MCA 0 ppm, CA 1000 ppm): +++
- Bacterial growth at 14 hr. ([2]; MCA 0 ppm, CA 1000 ppm): +++
- Bacterial growth at 12 hr. ([2]; MCA 0 ppm, CA 3000 ppm): +++
- Bacterial growth at 14 hr. ([2]; MCA 0 ppm, CA 3000 ppm): +++
- Bacterial growth at 12 hr. ([2]; MCA 0 ppm, CA 7000 ppm): +++
- Bacterial growth at 14 hr. ([2]; MCA 0 ppm, CA 7000 ppm): +++
- Bacterial growth at 12 hr. ([2]; MCA 0 ppm, CA 10000 ppm): +++
- Bacterial growth at 14 hr. ([2]; MCA 0 ppm, CA 10000 ppm): +++
